Where a name gives a salt, the structure may show the parent alone. Read-outs that look alike come from different tables or passages of the source.
Experiments:
Format in all cases: cell-based
[1] = system: TNF-α production in human peripheral blood mononuclear cells; assay: Inhibition of PMA/Ionomycin stimulated TNF-α production in human PBMC; conditions: mean±S.D., n=3
[2] = system: IFN-γ production in human peripheral blood mononuclear cells; assay: Inhibition of PMA/Ionomycin stimulated IFN-γ production in human PBMC; conditions: mean±S.D., n=3
[3] = system: IL-2 production in human T-cells (CD4+); assay: Inhibition of PMA/Ionomycin stimulated IL-2 production in human T-cells; conditions: T-cell
Description: The compounds to be evaluated were dissolved in DMSO and the dilution series of the compounds were prepared in DMSO. The series were further diluted in cell culture medium (RPMI 1640 with ultraglutamine, 10% foetal calf serum (FCS)) to obtain a final assay concentration of DMSO of 0.1% in 200 μl total volume. The compounds were plated (2 μl/well) on opaque white assay plates together with controls.
Peripheral blood mononuclear cells (PBMC) were isolated from human blood drawn from healthy volunteers, by density gradient separation over Ficoll-Paque. T-cells (CD4+) were obtained with positive selection using magnetic cell sorting (MACS). The cells were resuspended at 1×10^6 cells/ml in cell culture medium (RPMI 1640 with ultraglutamine, 10% FCS, 10 mM hepes, 1 mM sodium pyruvate and 0.1 mg/ml gentamicin).
The cells (1×10^5/well) were added to the assay plates containing the diluted compounds and pre-incubated for 30 min at 37° C. in a humidified atmosphere of 5% carbon dioxide. The cells were stimulated with 10 ng/ml phorbol myristate acetate (PMA) and 250 ng/ml ionomycin and the plates were incubated for 4 hours at 37° C. in a humidified atmosphere of 5% carbon dioxide. Approximately 100 μl of the supernatants were removed and transferred to a separate microtiter plate and the remaining cells were lysed (Nucleotide Releasing Reagent, ViaLight™, Cambrex). All the plates were kept at −20° C. pending analysis. Human interleukin-2 (IL-2) was analysed with a standard ELISA kit (OptEIA™, Pharmingen) according to the manufacturer's instructions. Viability was assessed by measuring adenosine triphosphate (ATP) content by adding luciferase (ATP monitoring reagent, ViaLight™, Cambrex) to the lysed cells and measuring luminescence, all according to the manufacturer's specifications.
The % effect of each concentration of compound was calculated compared to non-treated stimulated cells. Non-linear regression, a modified Hill-plot (y=(a−d)/(1+(x/c)b)+d) was used to calculate the concentration for y=50% (IC50).

[4] = system: IL-6 production in human peripheral blood mononuclear cells; assay: Inhibition of PMA/Ionomycin stimulated IL-6 production in human PBMC; conditions: mean±S.D., n=3
human T-cells = assay: Induction of apoptosis in human T-cells; conditions: Annexin V, PARP cleavage, DNA fragmentation methods
Description: The induction of apoptosis can be observed by measuring Annexin V-binding to cells (Van Engeland et al. 1998). Primary human CD4^+ T cells were isolated from peripheral blood from healthy volunteers as described above. Cells were cultured immediately after purification at a density of 2×10^6 cells/ml in RPMI 1640 medium supplemented with 10% FCS, Gentamycin (100 μg/ml), Hepes (10 mM) and Sodium Pyruvate (1 mM). Cells were stained with annexin V-FITC and propidium iodide by using the ApoAlert Annexin V-FITC Apoptosis Kit (Clontech) according to manufacturer's instructions. Flow cytometry analysis was performed using a FACScan (Becton Dickinson). […] Cell lysates were prepared by lysing 2×10^6 PBS-washed cells in 50 μl buffer containing 20 mM Tris-HCl, pH 7.7, 250 mM NaCl, 3 mM EDTA, 3 mM EGTA 0.5% NP-40 supplemented with 1 mM p-nitrophenyl phosphate (PNPP), 10 mM β-glycerophosphate, 100 μM Na-vanadate and 1 mM phenylmethansulfonyl fluoride (PMSF). The protein concentrations were determined by using Bio-Rads protein assay and thereafter equal amounts of protein was loaded onto precasted NuPAGE™ Tris-Bis gels (Novex). After electrophoresis, the proteins were transferred to nitrocellulose membrane and probed with a polyclonal rabbit antibody directed against PARP (Roche). […]

[5] = mean, n = 2, read-out: IC50 IL-2

IC50 [3, 5] | SMILES | also measured
2 µM | CCN(CC)CCN(CCNC(=O)Nc1cccc(C(F)(F)F)c1)C(=O)Nc1cccc(C(F)(F)F)c1.Cl [Compound A, 1-(2-Diethylamino-ethyl)-3-(3-trifluoromethyl-phenyl)-1-{2-[3-(3-trifluoromethyl-phenyl)-ureido]-ethyl}-urea, hydrochloride] | IC50 [1]: 3 ± 1 µM; IC50 [2]: 4 ± 1 µM; IC50 ([3]; mean±S.D., n=30, read-out: IC50 of IL-2 production): 2 ± 1 µM; IC50 [4]: 3 ± 1 µM; concentration at which significant apoptosis induction was observed (human T-cells): > 4 µM
2 µM | CCN(CC)CCN(CCNC(=O)Nc1cccc(C(F)(F)F)c1)C(=O)Nc1ccc(C(F)(F)F)cc1 [Compound B, 1-(2-Diethylamino-ethyl)-3-(4-trifluoromethyl-phenyl)-1-{2-[3-(3-trifluoromethyl-phenyl)-ureido]-ethyl}-urea] | 
2 µM | O=C(NCCN(CCN1CCCC1)C(=O)Nc1ccc(Cl)cc1)Nc1ccc(Cl)cc1 [Compound C, 3-(4-Chloro-phenyl)-1-{2-[3-(4-chloro-phenyl)-ureido]-ethyl}-1-(2-pyrrolidin-1-yl-ethyl)-urea] | 
2 µM | O=C(NCCN(CCN1CCCCC1)C(=O)Nc1cccc(Cl)c1)Nc1cccc(C(F)(F)F)c1 [Compound D, 1-{2-[3-(3-Chloro-phenyl)-1-(2-piperidin-1-yl-ethyl)ureido]-ethyl}-3-(3-trifluoromethyl-phenyl)-urea] | 
1 µM | CN(C)CCN(CCNC(=O)Nc1ccc(Br)cc1)C(=O)Nc1ccc(Br)cc1 [Compound E, 3-(4-Bromo-phenyl)-1-{2-[3-(4-bromo-phenyl)-ureido]-ethyl}-1-(2-dimethylamino-ethyl)-urea] | 
3 µM | CCN(CC)CCN(CCNC(=O)Nc1ccccc1)C(=O)Nc1ccc(C(F)(F)F)cc1 [Compound F, 1-(2-Diethylamino-ethyl)-1-[2-(3-phenyl-ureido)-ethyl]-3-(4-trifluoromethyl-phenyl)-urea] | 
1 µM | O=C(NCCN(CCN1CCCCC1)C(=O)Nc1ccc(C(F)(F)F)cc1)Nc1cccc(C(F)(F)F)c1 [Compound G, 1-(2-Piperidin-1-yl-ethyl)-3-(4-trifluoromethyl-phenyl)-1-{2-[3-(3-trifluoromethyl-phenyl)-ureido]-ethyl}-urea] | 
1 µM | O=C(NCCN(CCN1CCCC1)C(=O)Nc1ccc(C(F)(F)F)cc1)Nc1cccc(C(F)(F)F)c1 [Compound H, 1-{2-[1-(2-Pyrrolidin-1-yl-ethyl)-3-(4-trifluoromethylphenyl)-ureido]-ethyl}-3-(3-trifluoromethyl-phenyl)-urea] | 
5 µM | O=C(NCCN(CCN1CCCC1)C(=O)Nc1ccc(C(F)(F)F)cc1)Nc1ccc2ncccc2c1 [Compound I, 1-{2-[1-(2-Pyrrolidin-1-yl-ethyl)-3-(4-trifluoromethylphenyl)-ureido]-ethyl}-3-quinolin-6-yl-urea] | 
3 µM | O=C(NCCN(CCN1CCCC1)C(=O)Nc1ccc(C(F)(F)F)cc1)Nc1ccc(C(F)(F)F)cc1 [Compound J, 1-(2-Pyrrolidin-1-yl-ethyl)-3-(4-trifluoromethyl-phenyl)-1-{2-[3-(4-trifluoromethyl-phenyl)-ureido]-ethyl}-urea] | 
2 µM | O=C(NCCN(CCN1CCCCC1)C(=O)Nc1cccc(C(F)(F)F)c1)Nc1cccc(C(F)(F)F)c1 [Compound K, 1-(2-Piperidin-1-yl-ethyl)-3-(3-trifluoromethyl-phenyl)-1-{2-[3-(3-trifluoromethyl-phenyl)-ureido]-ethyl}-urea] | 
2 µM | CN(C)CCN(CCNC(=O)Nc1ccc(Cl)cc1)C(=O)Nc1ccc(C(F)(F)F)cc1 [Compound L, 1-{2-[3-(4-Chloro-phenyl)-ureido]-ethyl}-1-(2-dimethylamino-ethyl)-3-(4-trifluoromethyl-phenyl)-urea, hydrochloride] | 
2 µM | CCN(CC)CCN(CCNC(=O)Nc1cc(Cl)nc(Cl)c1)C(=O)Nc1ccc(Br)cc1 [Compound M, 1-{2-[3-(4-Bromo-phenyl)-1-(2-diethylamino-ethyl)ureido]-ethyl}-3-(2,6-dichloro-pyridin-4-yl)-urea] | 

From patent publication US20090118330A1, “Diurea derivatives” (priority 2004, published 2009)
